Activity calls are given as the source filed them. The rule behind the calls is not given here.
Test system: CCRIS mutagenicity, Ames/micronucleus/aberration tests
Assay: CCRIS mutagenicity studies

Measured: mutagenic call

O=C1C=CC(=O)c2c(O)ccc(O)c21
active: Test System: AMES SALMONELLA TYPHIMURIUM, Strain/Indicator: TA97, Metabolic Activation: NONE, Method: PREINCUBATION active; positive | Test System: AMES SALMONELLA TYPHIMURIUM, Strain/Indicator: TA97, Metabolic Activation: RAT, LIVER, S-9, PHENOBARBITAL AND 5,6-BENZOFLAVONE, Method: PREINCUBATION active; positive | Test System: AMES SALMONELLA TYPHIMURIUM, Strain/Indicator: TA100, Metabolic Activation: NONE, Method: PREINCUBATION active; positive | Test System: AMES SALMONELLA TYPHIMURIUM, Strain/Indicator: TA100, Metabolic Activation: RAT, LIVER, S-9, PHENOBARBITAL AND 5,6-BENZOFLAVONE, Method: PREINCUBATION active; positive | Test System: AMES SALMONELLA TYPHIMURIUM, Strain/Indicator: TA102, Metabolic Activation: NONE, Method: PREINCUBATION active; positive | Test System: AMES SALMONELLA TYPHIMURIUM, Strain/Indicator: TA102, Metabolic Activation: RAT, LIVER, S-9, PHENOBARBITAL AND 5,6-BENZOFLAVONE, Method: PREINCUBATION active; positive | Test System: AMES SALMONELLA TYPHIMURIUM, Strain/Indicator: TA104, Metabolic Activation: NONE, Method: PREINCUBATION active; positive | Test System: AMES SALMONELLA TYPHIMURIUM, Strain/Indicator: TA104, Metabolic Activation: RAT, LIVER, S-9, PHENOBARBITAL AND 5,6-BENZOFLAVONE, Method: PREINCUBATION active; positive | Test System: AMES SALMONELLA TYPHIMURIUM, Strain/Indicator: TA1537, Metabolic Activation: RAT, LIVER, S-9, PHENOBARBITAL AND 5,6-BENZOFLAVONE, Method: PREINCUBATION active; positive | Test System: AMES SALMONELLA TYPHIMURIUM, Strain/Indicator: TA2637, Metabolic Activation: NONE, Method: PREINCUBATION active; positive | Test System: AMES SALMONELLA TYPHIMURIUM, Strain/Indicator: TA2637, Metabolic Activation: RAT, LIVER, S-9, PHENOBARBITAL AND 5,6-BENZOFLAVONE, Method: PREINCUBATION active; positive
inactive: Test System: AMES SALMONELLA TYPHIMURIUM, Strain/Indicator: TA98, Metabolic Activation: NONE, Method: PREINCUBATION inactive; negative | Test System: AMES SALMONELLA TYPHIMURIUM, Strain/Indicator: TA98, Metabolic Activation: RAT, LIVER, S-9, PHENOBARBITAL AND 5,6-BENZOFLAVONE, Method: PREINCUBATION inactive; negative | Test System: AMES SALMONELLA TYPHIMURIUM, Strain/Indicator: TA1535, Metabolic Activation: NONE, Method: PREINCUBATION inactive; negative | Test System: AMES SALMONELLA TYPHIMURIUM, Strain/Indicator: TA1535, Metabolic Activation: RAT, LIVER, S-9, PHENOBARBITAL AND 5,6-BENZOFLAVONE, Method: PREINCUBATION inactive; negative | Test System: AMES SALMONELLA TYPHIMURIUM, Strain/Indicator: TA1537, Metabolic Activation: NONE, Method: PREINCUBATION inactive; negative | Test System: AMES SALMONELLA TYPHIMURIUM, Strain/Indicator: TA1538, Metabolic Activation: NONE, Method: PREINCUBATION inactive; negative | Test System: AMES SALMONELLA TYPHIMURIUM, Strain/Indicator: TA1538, Metabolic Activation: RAT, LIVER, S-9, PHENOBARBITAL AND 5,6-BENZOFLAVONE, Method: PREINCUBATION inactive; negative

c1ccc2c(c1)-c1ccccc1C1OC21 (stereo unspecified)
active: Test System: AMES SALMONELLA TYPHIMURIUM, Strain/Indicator: TA98, Metabolic Activation: NONE, Method: STANDARD PLATE active; positive

Oc1c(Cl)cc(Cl)c(Cl)c1O
active: Test System: CHINESE HAMSTER V-79, Strain/Indicator: V-79/6-THIOGUANINE, Metabolic Activation: NONE, Method: STANDARD PLATE active; positive
inactive: Test System: CHINESE HAMSTER V-79, Strain/Indicator: V-79/6-THIOGUANINE, Metabolic Activation: PRIMARY RAT HEPATOCYTES, Method: STANDARD PLATE inactive; negative
